Measurements reported in publication PMC9416741, “New-Generation Heterocyclic Bis-Pentamethinium Salts as Potential Cytostatic Drugs with Dual IL-6R and Mitochondria-Targeting Activity” (Pharmaceutics, 2022).
Structures can show the parent of a compound that is named as a salt. Where two headings read alike, the source gives them in different places.

Columns and labels:
in vitro = experiment: in vitro; design: MTT metabolic activity assay, absorbance at 570 nm; settings: human, single replicate
Method: (§1) A colorimetric MTT cell metabolic activity assay was used to determine the cytotoxicity of Bis-PMSs 5 and 6. For these experiments, the HF-P4, BJ-hTERT, BLM, A-2058, U-2 OS, H1299 and BT-20 cells were cultured under standard conditions (37 °C, humidified atmosphere with 5% CO2 in air) in culture medium (DMEM, RPMI-1640, McCoy’s or EMEM with 10% FBS). Cells were plated in 96-well plates at a density of 5000 cells per well and grown for 24 h. The medium was then replaced with a medium containing Bis-PMSs 5 and 6, and cells were cultured for an additional 48 h. Afterwards, the medium was exchanged for medium with the MTT yellow tetrazolium dye (3-(4,5-dimethylthiazol-2-yl)-2,5-diphenyltetrazolium bromide, Sigma-Aldrich) and incubated for 2 h at 37 °C. After that, the yellow tetrazole dye was removed and DMSO was used to dissolve the reduced purple formazan formed in living cells. The absorbance of the converted dye was measured at a wavelength of 570 nm with the reference of 630 nm using a SpectraMax ABS Plus microplate reader (Molecular Devices). Experiments were performed in quadruplicate and repeated three times with similar results. In U251MG and GL261 cells, an assay assessing cell growth independent of mitochondrial respiration was used. Cells were plated in 96-well plates at a density of 5000 cells per well and grown for 24 h under standard conditions in culture medium (DMEM and RPMI-1640 with 10% FBS for U251MG and Gl261 cells, respectively). The medium was then replaced by that supplemented with Bis-PMSs 5 and 6. After 72 h of exposure, surviving cells were fixed and stained with [compound left out] blue (5 g/L in 50%, v/v, ethanol) and lysed with 1% sodium dodecyl sulfate, and the relative cell number was determined by reading absorbance at 630 nm using a 96-well plate reader (Sunrise; Tecan, Männedorf, Switzerland). The cell inhibitory concentration (IC) was calculated using the equation IC = (APMS well/mean Acontrol wells) × 100%. The half-maximal inhibitory concentration (IC50) was calculated from dose–response curves using GraphPad Prism software (v. 8.0.1, La Jolla, CA, USA). The selectivity indexes towards cancer cells were calculated as a ratio of the average of the IC50 values for HF-P4 and BJ-hTERT human fibroblasts and the IC50 value for the corresponding cancer cell line. For U251MG and Gl261 glioblastoma cells, the cytoselectivity was calculated against normal HF P4 fibroblast cells, which were analyzed using the same cytotoxicity assay. The cytotoxic activities of Bis-PMSs 5 and 6 were evaluated in normal (HF-P4 and BJ-hTERT fibroblasts) and malignant (BLM, A-2058, U-2 OS, H1299, BT-20) cells using a conventional MTT viability assay. For the measurements, cells were exposed to 0–10 µM of Bis-PMSs 5 and 6 under standard conditions in a complete cell culture medium and cell viability was measured after 48 h of treatment. In addition, cytotoxicity was tested in U251MG and Gl261 glioma cells using an assay that assesses cell growth independent of mitochondrial respiration (Figures S10 and S11 and Table S3).

HFP4 = experiment: in vitro; design: MTT metabolic activity assay, absorbance at 570 nm; settings: single replicate, 48 h
Method: as §1

BJ-hTERT = experiment: in vitro; design: MTT metabolic activity assay, absorbance at 570 nm; settings: single replicate, 48 h
Method: as §1

[1] = molecular target: T1, IL-6R (IL-6 receptor containing α and β subunits) (Homo sapiens, UniProt P08887+P40189); experiment: microscale thermophoresis (T-jump); format: binding; settings: read-out: dissociation constant
T1 construct: gene IL6R; commercial IL-6R (Bio-Techne R&D Systems), said to contain alpha and beta subunits
T1 sequence (P08887 20-365 limits assumed): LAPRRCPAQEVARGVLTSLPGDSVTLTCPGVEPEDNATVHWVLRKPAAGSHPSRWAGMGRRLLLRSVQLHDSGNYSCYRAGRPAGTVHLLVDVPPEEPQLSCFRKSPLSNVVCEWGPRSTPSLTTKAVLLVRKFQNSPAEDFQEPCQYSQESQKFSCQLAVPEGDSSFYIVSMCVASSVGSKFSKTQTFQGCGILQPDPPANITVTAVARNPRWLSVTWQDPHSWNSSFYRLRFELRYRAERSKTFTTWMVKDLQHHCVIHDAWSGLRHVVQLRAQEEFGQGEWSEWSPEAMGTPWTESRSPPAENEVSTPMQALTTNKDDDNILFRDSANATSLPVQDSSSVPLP
T1 sequence (P40189 23-619 limits assumed): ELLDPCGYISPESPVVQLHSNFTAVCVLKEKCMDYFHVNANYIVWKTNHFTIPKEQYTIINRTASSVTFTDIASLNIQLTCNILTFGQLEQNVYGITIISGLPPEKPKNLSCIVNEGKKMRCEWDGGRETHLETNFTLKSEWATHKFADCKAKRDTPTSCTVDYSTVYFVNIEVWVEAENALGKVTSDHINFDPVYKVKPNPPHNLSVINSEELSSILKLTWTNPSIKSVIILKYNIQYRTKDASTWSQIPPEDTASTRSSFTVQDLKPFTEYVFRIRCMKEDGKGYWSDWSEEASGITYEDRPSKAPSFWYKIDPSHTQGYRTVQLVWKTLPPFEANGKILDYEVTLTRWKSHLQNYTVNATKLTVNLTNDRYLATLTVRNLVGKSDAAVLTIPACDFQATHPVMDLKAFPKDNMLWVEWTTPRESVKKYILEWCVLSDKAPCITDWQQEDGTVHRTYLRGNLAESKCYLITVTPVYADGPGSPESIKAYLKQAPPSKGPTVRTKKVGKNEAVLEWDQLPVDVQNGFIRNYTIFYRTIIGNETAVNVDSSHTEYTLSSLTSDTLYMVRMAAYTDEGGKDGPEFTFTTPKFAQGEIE

H1299 = experiment: cells; design: MTT metabolic activity assay, absorbance at 570 nm; settings: Homo sapiens, NCI-H1299, 48 h, single replicate
Method: as §1

BLM = experiment: cells; design: MTT metabolic activity assay, absorbance at 570 nm; settings: 48 h, single replicate
Method: as §1

BT-20 = experiment: cells; design: MTT metabolic activity assay, absorbance at 570 nm; settings: Homo sapiens, BT-20, 48 h, single replicate
Method: as §1

A2058 = experiment: cells; design: MTT metabolic activity assay, absorbance at 570 nm; settings: Homo sapiens, A2058, 48 h, single replicate
Method: as §1

U2-OS = experiment: cells; design: MTT metabolic activity assay, absorbance at 570 nm; settings: Homo sapiens, U2OS, 48 h, single replicate
Method: as §1

U251 = experiment: cells; design: Cell growth by dye staining of fixed cells, absorbance at 630 nm, independent of mitochondrial respiration; settings: Homo sapiens, U-251, 72 h, single replicate
Method: as §1

Gl261 = experiment: cells; design: Cell growth by dye staining of fixed cells, absorbance at 630 nm, independent of mitochondrial respiration; settings: Mus musculus, GL261, 72 h, single replicate
Method: as §1

IL-6R (Homo sapiens) = IL-6R (Homo sapiens) (UniProt P08887); settings: cited from earlier work
[2] = replicate 1, read-out: Bis-PMS 5 (IC50 / µM)
[3] = replicate 2, read-out: Bis-PMS 5 (IC50 / µM)
[4] = replicate 3, read-out: Bis-PMS 5 (IC50 / µM)
[5] = replicate 3, read-out: Bis-PMS 6 (IC50 / µM)
[6] = replicate 2, read-out: Bis-PMS 6 (IC50 / µM)
[7] = replicate 1, read-out: Bis-PMS 6 (IC50 / µM)

CN1C(=CC=C(C=CC2=[N+](C)c3ccccc3C2(C)C)c2ccc(C(C=CC3=[N+](C)c4ccccc4C3(C)C)=CC=C3N(C)c4ccccc4C3(C)C)cc2)C(C)(C)c2ccccc21 [compound 5, p-bis-pentamethinium salt 5]
CC50 at 48 h (in vitro; bj-htert cells, Bis-PMS 5 (IC50 / µM), replicate 2): 1.7 µM
CC50 (HFP4; [2]): 1.78 µM
CC50 (HFP4; [3]): 0.427 µM
CC50 (HFP4; [4]): 0.757 µM
CC50 (BJ-hTERT; [4]): 1.62 µM
Kd [1]: 0.0265 ± 0.0025 µM
IC50 (H1299; [2]): 2.69 µM
IC50 (H1299; [3]): 2.82 µM
IC50 (BLM; [2]): 0.417 µM
IC50 (BLM; [4]): 0.183 µM
IC50 (BT-20; [2]): 0.832 µM
IC50 (BT-20; [3]): 0.38 µM
IC50 (BT-20; [4]): 0.891 µM
IC50 (A2058; [3]): 0.396 µM
IC50 (A2058; [4]): 0.178 µM
IC50 (U2-OS; [2]): 0.562 µM
IC50 (U2-OS; [3]): 0.631 µM
IC50 (U2-OS; [4]): 0.295 µM
IC50 (U251; [2]): 0.501 µM
IC50 (U251; [3]): 0.938 µM
IC50 (Gl261; [2]): 0.9 µM
IC50 (Gl261; [3]): 1.04 µM

CN1C(=CC=C(C=CC2=[N+](C)c3ccccc3C2(C)C)c2cccc(C(C=CC3=[N+](C)c4ccccc4C3(C)C)=CC=C3N(C)c4ccccc4C3(C)C)c2)C(C)(C)c2ccccc21 [compound 6, m-bis-pentamethinium salt 6]
CC50 at 48 h (in vitro; hf-p4 cells, Bis-PMS 6 (IC50 / µM), replicate 1): 1.05 µM
CC50 (HFP4; [5]): 1.95 µM
CC50 (BJ-hTERT; [6]): 1.66 µM
CC50 (BJ-hTERT; [5]): 0.776 µM
Kd [1]: 0.304 ± 0.0276 µM
IC50 (H1299; [6]): 0.199 µM
IC50 (H1299; [5]): 0.138 µM
IC50 (BLM; [7]): 0.933 µM
IC50 (BLM; [5]): 1.91 µM
IC50 (BT-20; [7]): 0.724 µM
IC50 (BT-20; [6]): 0.617 µM
IC50 (BT-20; [5]): 0.997 µM
IC50 (A2058; [7]): 0.191 µM
IC50 (A2058; [6]): 1.07 µM
IC50 (A2058; [5]): 0.646 µM
IC50 (U2-OS; [7]): 0.257 µM
IC50 (U2-OS; [6]): 0.347 µM
IC50 (U2-OS; [5]): 0.123 µM
IC50 (U251; [7]): 0.485 µM
IC50 (U251; [6]): 0.526 µM
IC50 (Gl261; [7]): 0.218 µM
IC50 (Gl261; [6]): 0.319 µM

tocilizumab
Kd (IL-6R (Homo sapiens)): 0.00254 µM
